We go through one substance from patent US20050244413A1, “Compositions and methods for treating cancer using cytotoxic CD44 antibody immunoconjugates and chemotherapeutic agents” (priority 2002, published 2005).

The nature of series [1]: Tolerability of BIWI 1 monotherapy in nude mice (mouse weight). The class given is in vivo. The conditions noted are these: FaDu xenografted mice, 21 mg/kg/d BIWI 1. How it is done: (§1) In vivo anti-tumor efficacy of BIWI 1 was tested in three nude mouse xenograft models applying antigen-positive human tumors: A431 (ATCC # CRL 1555; epidermoid carcinoma of the vulva), FaDu (ATCC # HTB 43; squamous cell carcinoma of the pharynx), and MDA-MB 453 (ATCC # HTB-131; breast carcinoma). The cells were received from ATCC and cultured in RPMI1640 medium containing 10% fetal calf serum and supplements. 1×10^6 tumors cells were transplanted subcutaneously into the right flank of 6 week old female NMRI-nu/nu mice. Tumor growth was monitored by measuring tumor size. A tumor response was rated as complete response when the tumor completely disappeared at any time after start of treatment. The response was rated as partial response when the tumor volume decreased after treatment but thereafter started regrowing. The tolerability of the treatment was monitored by measuring mouse weight during the observation period.
The tolerability of BIWI 1 monotherapy was determined by monitoring mouse weight during the whole duration of the experiment in the 2 models. The maximum observed average weight loss per group was 6% in FaDu xenografted mice treated with 21 mg/kg/d BIWI 1 (FIG. 5). The weight loss started around day 3 of treatment and lasted until day 10, thereafter animals regained weight and behaved similar as control animals. […]

A further series has as its system FaDu tumors. Nature of the series: BIWI 1 combination therapy with paclitaxel in the FaDu xenograft model. The series is classed as in vivo, mouse. On the procedure: as §1
Mice were randomised into the following treatment groups (treatment/initial mean tumor volume/tumor volume range/number of mice): • Group 1: Control (PBS)/197 mm^3/65-402 mm^3/8 mice • Group 2: Paclitaxel/182 mm^3 /65%-302 mm^3/8 mice • Group 3: BIWI 1/208 mm^3 /65-382 mm^3/8 mice • Group 4: BIWI 1+paclitaxel/159 mm^3 /79-335 mm^3 /7 mice
Treatment consisted either of five i.v. injections of BIWI 1 (7 mg/kg corresponding to 100 μg/kg DM1) at day 1, 3, 5, 8, 10, or of six i.p. injections of paclitaxel (10 mg/kg) at day 2, 4, 6, 9, 11, 13, respectively, or a combination thereof. Control animals were treated with PBS.
One tumor completely dissappeared during treatment and the animal remained tumor free until the end of the observation period.

In a further series the test system is FaDuDD tumors. Nature of the series: BIWI 1 combination with cisplatin in nude mice xenografted with FaDuDD tumors. The class given is in vivo, mouse. On the procedure:
The antibody solution was injected into the tail vein with an injection volume of 200 μl for a 25 g mouse. In the control groups without BIWI 1 treatment animals were injected i.v. with PBS. […] The solution was injected into the tail vein with an injection volume of 200 μl for a 25 g mouse. […] The solution was injected into the tail vein with an injection volume of 200 μl for a 25 g mouse.
Tumor sizes and body weights were recorded 2-3 times per week. Tumor sizes were measured with a calliper (length and width) and the volume was calculated according to the following formula: volume (length)×(width)^2×([…]). The tolerability of the treatment was monitored by measuring mouse weight during the whole observation period. […] For calculation of the mean tumor volumes per group, the last values of tumor size for individual animals were carried forward in case that these animals had to be sacrificed due to large tumor burden before the whole group was terminated. In addition to the absolute tumor volume in mm^3, the relative tumor volumes (RTV) were calculated as follows:
RTV=(tumor volume at day x)/(tumor volume at start of treatment)×100 For the evaluation of treatment efficacy the following parameters were calculated: • T/C (%)=(mean RTV of treated group)/(mean RTV of control group)×100 • T4T (tumor quadrupling time)=time until the mean RTV reaches 400% • GDF4 (growth delay factor)=T4T treated/T4T control.
In addition, for some experiments, the mean time for tumors to reach 8 times (T8T) their initial sizes were also calculated. The growth delay factor (GDF8) was then calculated accordingly. Percentages of mean relative tumor volumes of treated versus control groups (T/C) were calculated on the days indicated. For statistical evaluation of combination therapies exact Wilcoxon tests were used. Tolerability was assessed by monitoring body weight changes.
A different set of experiments was done with cisplatin. In a pilot experiment, a dose of 4 mg/kg cisplatin administered i.v. four times in weekly intervals was determined to be non-curative in this model, and also represents the maximum tolerated dose in the mouse strain used. This dose of cisplatin was combined with BIWI 1 at the non-curative doses of 200 μg/kg DM1 and 300 Ag/kg DM1 already used in the previous experiment. […] In the latter combination group 2/8 complete tumor regressions could be observed. […] Treatment was well tolerated in all groups.

The test system of series [2] is breast carcinoma xenografts. Description: BIWI 1 (five daily doses) combination with paclitaxel in human breast carcinoma xenograft model. The series is classed as in vivo, mouse. How it is done:
BIWI was given i.v. into the tail vein at doses of 50 μg DM1/kg/day or 100 μg DM1/kg/day for five consecutive days. Paclitaxel (Taxol®) was given i.v. at 20 or 10 mg/kg, doxorubicin (Adriamycin®) at 6 or 4 mg/kg only on the first day of the treatment period, in each case 4 hours after BIWI 1 treatment. In mice bearing breast carcinoma xenografts with a volume of approximately 100 mm3.
In general terms: Xenograft models place foreign cells or tissue in a host animal.

[3] abbreviates: BIWI 1 7 mg/kg i.v. x5, paclitaxel 10 mg/kg i.p. x6, or both.
The mark [4] stands for this setting: BIWI 1 200 μg/kg DM1 i.v. q7dx4.
[5] abbreviates: BIWI 1 300 μg/kg DM1 i.v. q7dx4.

In the case of BIWI 1, the “maximum observed average weight loss per group” value in series [1] was 6%. Further, in the series on FaDu tumors (BIWI 1 7 mg/kg i.v. day 1,3,5,8,10, paclitaxel 10 mg/kg i.p. day 2,4,6,9,11,13, or both), the “Initial Tumor Doubling Time” value is 7 days. Further, in the series with FaDu tumors (setting [3]), the “Complete Regression” value is 0/8 and the “Growth Delay Factor” value is recorded as 0.75. The partial response with FaDu tumors (BIWI 1 monotherapy 7 mg/kg i.v. x5) is given as 3/8. In the series with FaDuDD tumors (setting [4]), the GDF4 worked out at 2.2, the “T4T” value was found to be 23.2 days and the “T/C (d 19)” value was 59%. For the same substance, in the series on FaDuDD tumors (setting [5]), the GDF4 is recorded as 2.3, the “T4T” value is 24.8 days and the “T/C (d 19)” value is 27%. Moreover, the complete tumor regressions in series [2] (BIWI 1 monotherapy 50 μg DM1/kg/day i.v., five consecutive days) is 2/12. The “T/C (median relative tumor volumes of treated versus control groups)” value in series [2] (BIWI 1 monotherapy 50 μg DM1/kg/day x5) came out at 19%. Moreover, the Complete Regression in series [2] (BIWI 1 monotherapy 100 μg DM1/kg/day i.v., five consecutive days, tumors approx. 100 mm3) is on record as 12/12.
